# Reference: patent publication US8586603B2, “Aminotetraline derivatives” (priority 2009, dated 2013)
# Tests used:
# [1] = target: T1, porcine cortical p5-HT2 serotonin receptor (Sus scrofa, UniProt P50129); assay: Receptor binding assay, [3H]ketanserin competition, porcine cortical membranes
# T1 construct: membrane homogenates prepared from porcine striatal or cortical tissue; from tissue; host or cells: porcine cortex
# [2] = Pig skin permeation from patch; assay type: in vitro ADME
# Description: The in vitro permeation of compound 1 through pig skin from saturated solution (f1) and from a patch (f2) was investigated.
# For this permeation experiments Franz diffusion cells with a diffusion area of 2.54 cm^2 and an acceptor volume of approx. 100 mL were used. For the study pig leg skin with a thickness of 300-500 μm was used. The permeation experiments were performed at a temperature of 32° C. and the acceptor medium (phosphate buffer pH 6.2) was slowly stirred. A patch of 2.54 cm^2 area comprising about 5 wt % of compound 1 in a hydrophobic adhesive layer was fixed on the skin surface. The experiments were performed in triplicate (n=3) over a period of 48 hours. During this time period six samples at different time points (after 2, 4, 6, 8, 24 and 48 hours) were taken. After each individual incubation period the concentration of the test compound in the acceptor medium was analysed by HPLC at 275 nm, 20° C., 2.0 mL/min in acetonitrile/water/TFA.
# [3] = Stability in PBS buffer pH 7.4 and SGF with 0.5% DMSO; assay type: physicochemical; conditions: 37° C.
# Description: 5 μL DMSO stock solution of compound 1 (2 mg/mL) were diluted with […] PBS buffer pH 7.4 and 995 μL Simulated Gastric Fluid (SGF). After dilution the samples were immediately analysed by HPLC. After the initial injection, each sample solution was repeatedly injected over a period of approximately 12 hours.
# [4] = target: T2, human dopamine receptor subtype hD4.4 (Homo sapiens, UniProt P21917); assay: Receptor binding assay, [3H]spiperone competition, CHO cell membranes
# T2 construct: expressed in transfected cells; host or cells: CHO
# T2 sequence (P21917 1-419): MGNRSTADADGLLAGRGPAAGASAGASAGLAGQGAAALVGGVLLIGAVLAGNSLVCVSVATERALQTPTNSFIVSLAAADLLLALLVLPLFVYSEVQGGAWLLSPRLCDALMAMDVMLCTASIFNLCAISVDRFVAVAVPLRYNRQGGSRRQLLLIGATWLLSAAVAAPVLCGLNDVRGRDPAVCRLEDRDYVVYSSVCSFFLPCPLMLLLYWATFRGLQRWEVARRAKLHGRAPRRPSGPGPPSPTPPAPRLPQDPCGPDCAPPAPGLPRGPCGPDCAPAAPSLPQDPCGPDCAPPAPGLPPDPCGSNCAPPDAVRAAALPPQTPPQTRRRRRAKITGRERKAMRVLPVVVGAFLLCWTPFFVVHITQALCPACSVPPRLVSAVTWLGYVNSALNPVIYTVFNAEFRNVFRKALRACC
# Description: Receptor binding data were determined when performing competition binding assays with membrane preparations of cloned cells (stably transfected Chinese Hamster Ovary cells (CHO)) expressing the human receptors and the following radioligands: [^3H]spiperone at the human dopamine receptor subtypes hD2long, hD2short, D3, and hD4.4. […].
# Selectivity ratios were calculated by division of the Ki values of the various compounds at the respective receptors through the Ki values at the 5HT1a receptor.
# [5] = target: T3, porcine cortical p5-HT1a serotonin receptor (Sus scrofa, UniProt A0A4X1UTF5); assay: Receptor binding assay, [3H]WAY100635 competition, porcine cortical membranes
# T3 construct: membrane homogenates prepared from porcine striatal or cortical tissue; from tissue; host or cells: porcine cortex
# T3 sequence (A0A4X1UTF5 1-422): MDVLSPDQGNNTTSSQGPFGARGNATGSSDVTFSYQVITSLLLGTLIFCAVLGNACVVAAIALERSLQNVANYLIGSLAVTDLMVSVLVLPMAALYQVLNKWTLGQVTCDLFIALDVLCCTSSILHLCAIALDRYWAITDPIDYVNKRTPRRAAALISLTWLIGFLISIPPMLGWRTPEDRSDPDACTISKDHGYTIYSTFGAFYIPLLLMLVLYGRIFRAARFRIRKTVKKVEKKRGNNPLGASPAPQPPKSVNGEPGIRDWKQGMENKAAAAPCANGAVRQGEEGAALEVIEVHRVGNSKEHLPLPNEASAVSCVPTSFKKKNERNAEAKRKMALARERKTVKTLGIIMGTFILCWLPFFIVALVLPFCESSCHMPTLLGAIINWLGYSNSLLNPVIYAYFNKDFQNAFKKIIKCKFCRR
# [6] = means of 2-8 individual experiments each done as triplicate
# T1 sequence (P50129 whole entry): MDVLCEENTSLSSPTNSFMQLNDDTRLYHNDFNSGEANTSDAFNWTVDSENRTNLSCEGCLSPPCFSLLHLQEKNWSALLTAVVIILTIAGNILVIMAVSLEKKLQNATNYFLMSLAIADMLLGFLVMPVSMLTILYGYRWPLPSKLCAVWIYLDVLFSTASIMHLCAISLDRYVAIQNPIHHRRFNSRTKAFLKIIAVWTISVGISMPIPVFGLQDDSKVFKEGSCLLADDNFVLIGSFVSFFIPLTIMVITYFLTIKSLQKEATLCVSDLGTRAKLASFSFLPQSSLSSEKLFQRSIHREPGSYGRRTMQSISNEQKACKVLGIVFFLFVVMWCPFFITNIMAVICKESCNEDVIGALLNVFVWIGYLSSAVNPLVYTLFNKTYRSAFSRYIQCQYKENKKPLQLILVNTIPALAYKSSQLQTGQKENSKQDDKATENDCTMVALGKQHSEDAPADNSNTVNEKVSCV
smiles,measurement,setting,value
"CCCN(CCc1cccs1)C1CCc2cccc(O)c2C1 (stereo not drawn) [Compound 1, N-(8-Hydroxytetralin-2-yl)-N-propyl-N-[2-(2-thienyl)ethyl]amine]",Ki,[1]; [6],3.6 µM
same,selectivity ratio p5-HT2,[1]; vs p5-HT1a,4 900
same,penetration of skin in an in vitro skin model of transdermal penetration,[2]; in words,able to penetrate skin
same,average flux rate from patch,"[2]; patch 2.54 cm^2, about 5 wt % compound 1 in hydrophobic adhesive layer, pig leg skin, 32° C., 48 hours",4.0 μg/cm^2/h
same,Measured Flux Rate (patch),"[2]; patch, pig skin",4.01 μg μg per cm^2/h
same,Extrapolated daily flux rate,[2]; per 30 cm^2 patch/24 hrs,2.88 mg
same,degradation (stability),"[3]; PBS buffer pH 7.4, 12 hours",No degradation
same,degradation (stability),"[3]; simulated gastric fluid (pH 1-2), 12 hours",No degradation
same,Ki,[4]; [6],0.19 µM
same,selectivity ratio hD4.4,[4]; vs p5-HT1a,260
same,Ki,[5]; [6],0.00073 µM
same,selectivity ratio p5-HT1a,[5]; reference receptor of the ratio (=1),1
